Experiment [1] concerns the target Protein disulfide-isomerase (Homo sapiens, UniProt P07237). In words: inhibition of PDI-driven insulin aggregation – biochemical, turbidity, absorbance, cherry-picked samples, dose response (AID 602350). The format is functional.
Experiment [2] can be described thus: blockers of CAL PDZ–TMR peptide complex – biochemical, fluorescence polarization, untagged CAL PDZ, cherry-pick, set 2, dose response (AID 602254). The format is functional. On the technique in general: Fluorescence polarisation rises when a labelled molecule tumbles more slowly, as on binding a larger partner.
Experiment [3] has as its target T1, High affinity choline transporter 1 (Homo sapiens, UniProt Q9GZV3).
T1 sequence (Q9GZV3 whole entry): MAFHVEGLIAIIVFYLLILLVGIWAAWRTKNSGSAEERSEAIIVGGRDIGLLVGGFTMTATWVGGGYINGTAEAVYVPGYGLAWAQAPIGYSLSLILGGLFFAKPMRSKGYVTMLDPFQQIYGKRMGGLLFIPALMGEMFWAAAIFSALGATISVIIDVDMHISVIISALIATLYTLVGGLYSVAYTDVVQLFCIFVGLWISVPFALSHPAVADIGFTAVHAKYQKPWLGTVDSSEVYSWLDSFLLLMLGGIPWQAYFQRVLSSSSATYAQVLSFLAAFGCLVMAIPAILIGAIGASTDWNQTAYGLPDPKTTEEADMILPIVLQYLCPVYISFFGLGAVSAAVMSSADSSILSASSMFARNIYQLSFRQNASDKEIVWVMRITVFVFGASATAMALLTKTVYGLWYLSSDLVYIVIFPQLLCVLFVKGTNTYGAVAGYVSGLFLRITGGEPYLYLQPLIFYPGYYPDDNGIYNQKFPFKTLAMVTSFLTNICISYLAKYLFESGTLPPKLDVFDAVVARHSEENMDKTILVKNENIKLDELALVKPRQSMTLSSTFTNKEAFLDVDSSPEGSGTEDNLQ
The experiment is described as follows: human choline transporter potentiators, potency – cell-based, 10-point CRC, membrane potential dye, dose response (AID 602376). The format is functional.

Experiment [4] in a line: viability of HCT116 lacking mutant beta-catenin – cell-based, human colon tumor, dose response (AID 1045).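 Note: HCT116 colon tumor cells with beta catenin knocked out; cells exposed to compound for 60 hours.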 Type of experiment: functional.
A short description of experiment [5]: viability of PTEN-deleted HCT116 cells – cell-based, HCT116 PTEN knockout, dose response (AID 1047).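 Note: HCT116 colon tumor cells with PTEN knocked out; cells exposed to compound for 60 hours before readout; potency for loss of cell viability measured by luminescence.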 Type of experiment: functional.
A short description of experiment [6]: microbe, parasite or virus in culture. Type of experiment: functional. Conditions: Mycobacterium tuberculosis.
A short description of another experiment: cells. The format is functional.
A short description of experiment [7]: THP-1 cell cytotoxicity, dose response, cytotoxicity control for non-replicating M. tuberculosis project (AID 489025). The format is functional.
A further experiment addresses T2, Estrogen receptor (Homo sapiens, UniProt P03372).
T2 sequence (P03372 whole entry): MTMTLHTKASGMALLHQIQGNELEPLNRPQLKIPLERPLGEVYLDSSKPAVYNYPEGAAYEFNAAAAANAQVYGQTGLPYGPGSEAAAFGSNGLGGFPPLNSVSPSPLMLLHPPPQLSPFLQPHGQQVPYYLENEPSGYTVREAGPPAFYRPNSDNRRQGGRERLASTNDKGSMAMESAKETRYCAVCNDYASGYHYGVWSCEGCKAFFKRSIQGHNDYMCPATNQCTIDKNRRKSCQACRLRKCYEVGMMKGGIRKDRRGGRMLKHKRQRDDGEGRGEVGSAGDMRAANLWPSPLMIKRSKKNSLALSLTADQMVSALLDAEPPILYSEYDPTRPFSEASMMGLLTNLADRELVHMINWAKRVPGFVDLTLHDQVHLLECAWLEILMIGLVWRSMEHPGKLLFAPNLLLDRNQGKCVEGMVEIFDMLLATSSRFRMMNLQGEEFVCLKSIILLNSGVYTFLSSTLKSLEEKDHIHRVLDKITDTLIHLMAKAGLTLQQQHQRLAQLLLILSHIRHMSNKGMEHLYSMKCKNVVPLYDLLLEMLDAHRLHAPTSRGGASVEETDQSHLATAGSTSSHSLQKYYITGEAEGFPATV

Experiment [8] deals with DNA (cytosine-5)-methyltransferase 1 (Homo sapiens, UniProt P26358). In words: inhibition of DNA methylation by DNMT1 – biochemical, fluorescent molecular beacon, confirmation (AID 602386). The format is functional.
The target of experiment [9] is T3, Estrogen receptor beta (Homo sapiens, UniProt Q92731).
Experiment [10] addresses T3, Estrogen receptor beta. The experiment is described as follows: blockers of SRC-3 recruitment to ERβ – biochemical, ELISA, streptavidin-HRP readout, orthogonal assay, confirmation (AID 1060). A general note: In an ELISA, binding on a coated surface is turned into a signal by an enzyme label.
For experiment [11], the target named is T4, Carboxy-terminal domain RNA polymerase II polypeptide A small phosphatase 1 (Homo sapiens, UniProt Q9GZU7).
T4 sequence (Q9GZU7 whole entry): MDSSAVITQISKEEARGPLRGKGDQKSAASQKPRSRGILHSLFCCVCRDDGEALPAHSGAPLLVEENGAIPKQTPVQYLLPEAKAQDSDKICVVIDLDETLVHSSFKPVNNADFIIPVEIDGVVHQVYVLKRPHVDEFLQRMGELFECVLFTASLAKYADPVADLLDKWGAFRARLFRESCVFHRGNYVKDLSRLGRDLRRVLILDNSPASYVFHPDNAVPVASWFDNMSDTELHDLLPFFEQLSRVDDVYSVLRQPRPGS
The experiment is described as follows: CTDSP1 inhibitors, concentration-response, biochemical, absorbance readout, ultra-high-throughput screen actives (AID 540297). Type of experiment: functional.

The next experiment addresses Melanocortin receptor 4 (Homo sapiens, UniProt P32245). In words: inhibitors of MC4R cAMP signaling – cell-based, TR-FRET, biased antagonists, dose response (AID 602298).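 Note: antagonist potency against agonist-stimulated cAMP production.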 Type of experiment: functional.
Experiment [12] is described as follows: cAMP pathway inhibition in counterscreen cell line – TR-FRET cAMP detection, counter-screen for MC4R biased antagonist project, dose response (AID 602305).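 Note: U2OS cells stimulated with forskolin near its EC80 as the cAMP inducer; potency is for inhibition of forskolin-stimulated cAMP signaling.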 The format is functional, cell-based. (In general: Counterscreens check selectivity or assay interference.)
Experiment [13] is described as follows: viability loss in HEK293 cells – cell-based, plate reader, cherry-picked samples, cytotoxicity control, dose response (AID 743446). Type of experiment: functional.
A short description of experiment [14]: blockers of bursicon-stimulated LGR2 cAMP reporter – cell-based, HEK293, CRE-luciferase reporter, cherry pick, set 2, dose response (AID 743343).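 Note: transfected cells were stimulated with diluted bursicon conditioned medium after compound addition.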 Type of experiment: functional.
Experiment [15] is described as follows: blockade of melanocortin 4 receptor signaling – cell-based, plate reader, cherry pick, counter-screen for LGR2 antagonist project, dose response (AID 743444).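 Note: transfected HEK 293 cells stimulated with alpha-MSH peptide; potency of inhibitors of the alpha-MSH evoked signal.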 The format is functional.
Experiment [16] concerns the target T5, Apoptotic protease-activating factor 1 (Homo sapiens, UniProt O14727).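 Note: caspase-3 cleavage of fluorogenic Rh110 DEVD substrate downstream of apoptosome activation.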
T5 sequence (O14727 whole entry): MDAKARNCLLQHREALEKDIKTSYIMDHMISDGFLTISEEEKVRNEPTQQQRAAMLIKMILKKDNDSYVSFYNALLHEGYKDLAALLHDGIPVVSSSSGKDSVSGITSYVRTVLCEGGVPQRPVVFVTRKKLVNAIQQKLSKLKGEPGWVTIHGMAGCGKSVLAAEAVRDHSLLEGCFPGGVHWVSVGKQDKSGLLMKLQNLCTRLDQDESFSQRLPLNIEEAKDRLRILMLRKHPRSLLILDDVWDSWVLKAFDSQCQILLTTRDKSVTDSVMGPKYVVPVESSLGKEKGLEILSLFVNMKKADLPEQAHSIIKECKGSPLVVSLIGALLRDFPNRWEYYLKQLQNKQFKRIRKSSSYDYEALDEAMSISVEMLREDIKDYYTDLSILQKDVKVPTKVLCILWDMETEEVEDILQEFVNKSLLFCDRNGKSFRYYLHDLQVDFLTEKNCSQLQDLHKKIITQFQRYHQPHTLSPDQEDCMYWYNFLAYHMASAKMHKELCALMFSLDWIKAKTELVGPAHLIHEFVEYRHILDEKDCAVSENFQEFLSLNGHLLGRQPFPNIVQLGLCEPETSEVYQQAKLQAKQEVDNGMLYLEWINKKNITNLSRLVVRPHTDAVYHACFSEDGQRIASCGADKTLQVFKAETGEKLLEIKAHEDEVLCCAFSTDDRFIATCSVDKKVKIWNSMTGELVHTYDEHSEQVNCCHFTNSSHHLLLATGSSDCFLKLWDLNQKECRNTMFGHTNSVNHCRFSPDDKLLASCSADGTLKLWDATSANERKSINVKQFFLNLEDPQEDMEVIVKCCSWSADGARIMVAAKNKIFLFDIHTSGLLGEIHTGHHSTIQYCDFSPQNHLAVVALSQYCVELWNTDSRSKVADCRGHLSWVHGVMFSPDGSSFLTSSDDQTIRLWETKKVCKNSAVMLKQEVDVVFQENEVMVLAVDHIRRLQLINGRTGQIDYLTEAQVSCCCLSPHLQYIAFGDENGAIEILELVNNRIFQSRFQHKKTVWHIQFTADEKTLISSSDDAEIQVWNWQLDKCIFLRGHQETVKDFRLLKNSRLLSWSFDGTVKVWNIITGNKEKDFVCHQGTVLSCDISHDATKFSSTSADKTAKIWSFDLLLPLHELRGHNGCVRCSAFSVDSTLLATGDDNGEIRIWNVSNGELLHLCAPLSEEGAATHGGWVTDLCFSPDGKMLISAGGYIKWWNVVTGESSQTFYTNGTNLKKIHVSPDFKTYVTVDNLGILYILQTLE
In words: SAR analysis of small molecule Activators of Apaf-1 in a Fluorescent assay. The format is functional. As to conditions: read-out: EC50_Mean.

Experiment [17] has as its target T6, Neuropeptides B/W receptor type 1 (Homo sapiens, UniProt P48145).
T6 sequence (P48145 whole entry): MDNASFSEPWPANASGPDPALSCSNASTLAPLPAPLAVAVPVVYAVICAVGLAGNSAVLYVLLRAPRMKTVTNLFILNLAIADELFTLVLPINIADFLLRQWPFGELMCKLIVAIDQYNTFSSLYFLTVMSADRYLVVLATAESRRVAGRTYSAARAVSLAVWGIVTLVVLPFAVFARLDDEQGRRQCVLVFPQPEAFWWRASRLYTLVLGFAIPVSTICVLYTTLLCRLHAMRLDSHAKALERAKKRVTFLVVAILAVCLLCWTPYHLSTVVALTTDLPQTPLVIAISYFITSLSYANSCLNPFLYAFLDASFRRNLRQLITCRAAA
The experiment is described as follows: human NPBW1 receptor blockade, IC50 – cell-based, fluorescence, dose response, set 5, late-stage follow-up (AID 588566). The format is functional.

For experiment [18], the target named is Melanin-concentrating hormone receptor 1 (Homo sapiens, UniProt Q99705). In words: Late-stage fluorescence-based counterscreen for antagonists of the G-protein coupled receptor 7 (GPR7): cell-based dose response assay to identify antagonists of the melanin-concentrating hormone receptor 1 (MCHR1) Set 5. The format is functional.

Calls of active or inactive are those of the source.

Chain of Protein disulfide-isomerase (P07237 whole entry): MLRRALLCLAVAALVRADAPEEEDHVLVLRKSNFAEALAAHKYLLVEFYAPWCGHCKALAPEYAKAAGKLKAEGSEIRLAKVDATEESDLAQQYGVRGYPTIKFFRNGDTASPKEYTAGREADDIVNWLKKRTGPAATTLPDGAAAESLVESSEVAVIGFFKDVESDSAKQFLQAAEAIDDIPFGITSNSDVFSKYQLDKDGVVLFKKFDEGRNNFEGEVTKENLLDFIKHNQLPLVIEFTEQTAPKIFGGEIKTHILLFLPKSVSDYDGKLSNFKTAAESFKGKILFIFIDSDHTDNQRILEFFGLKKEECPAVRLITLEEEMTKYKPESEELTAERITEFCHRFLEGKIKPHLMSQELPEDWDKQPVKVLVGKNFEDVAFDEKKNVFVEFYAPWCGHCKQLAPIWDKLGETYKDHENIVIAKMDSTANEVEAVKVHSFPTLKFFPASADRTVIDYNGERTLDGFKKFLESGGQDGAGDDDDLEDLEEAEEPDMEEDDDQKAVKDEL
Chain of Melanin-concentrating hormone receptor 1 (Q99705 whole entry): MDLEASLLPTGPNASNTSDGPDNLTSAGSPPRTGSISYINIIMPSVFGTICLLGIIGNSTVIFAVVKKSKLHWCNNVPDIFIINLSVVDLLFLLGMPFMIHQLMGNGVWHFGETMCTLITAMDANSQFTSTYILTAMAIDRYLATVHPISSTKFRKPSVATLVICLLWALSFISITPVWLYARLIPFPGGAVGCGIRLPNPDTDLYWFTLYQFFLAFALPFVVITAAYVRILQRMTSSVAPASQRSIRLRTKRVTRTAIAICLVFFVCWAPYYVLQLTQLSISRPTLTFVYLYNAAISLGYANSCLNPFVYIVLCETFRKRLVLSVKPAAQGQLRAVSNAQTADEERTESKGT
Chain of Melanocortin receptor 4 (P32245 whole entry): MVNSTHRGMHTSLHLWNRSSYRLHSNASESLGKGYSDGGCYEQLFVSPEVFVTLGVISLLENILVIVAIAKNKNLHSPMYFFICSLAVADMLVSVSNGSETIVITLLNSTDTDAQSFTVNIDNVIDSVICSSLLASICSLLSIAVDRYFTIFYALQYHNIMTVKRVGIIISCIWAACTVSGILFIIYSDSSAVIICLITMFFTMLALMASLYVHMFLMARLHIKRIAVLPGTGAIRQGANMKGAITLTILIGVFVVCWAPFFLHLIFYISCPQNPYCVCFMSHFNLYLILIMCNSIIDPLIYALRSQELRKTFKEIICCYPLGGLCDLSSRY
T3 sequence (Q92731 whole entry): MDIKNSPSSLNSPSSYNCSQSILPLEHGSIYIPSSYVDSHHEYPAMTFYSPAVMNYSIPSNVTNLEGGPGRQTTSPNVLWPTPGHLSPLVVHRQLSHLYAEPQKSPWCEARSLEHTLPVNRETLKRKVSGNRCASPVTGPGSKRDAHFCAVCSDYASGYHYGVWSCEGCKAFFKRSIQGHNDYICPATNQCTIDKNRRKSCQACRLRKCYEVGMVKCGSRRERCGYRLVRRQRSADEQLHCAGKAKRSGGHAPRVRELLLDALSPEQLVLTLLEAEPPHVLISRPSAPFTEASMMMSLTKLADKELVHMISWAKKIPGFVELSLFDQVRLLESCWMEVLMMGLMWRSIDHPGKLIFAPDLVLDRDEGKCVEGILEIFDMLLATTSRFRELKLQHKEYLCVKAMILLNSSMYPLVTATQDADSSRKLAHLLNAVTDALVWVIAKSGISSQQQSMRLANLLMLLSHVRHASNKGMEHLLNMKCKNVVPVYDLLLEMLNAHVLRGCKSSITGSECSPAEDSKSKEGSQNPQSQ
Chain of DNA (cytosine-5)-methyltransferase 1 (P26358 whole entry): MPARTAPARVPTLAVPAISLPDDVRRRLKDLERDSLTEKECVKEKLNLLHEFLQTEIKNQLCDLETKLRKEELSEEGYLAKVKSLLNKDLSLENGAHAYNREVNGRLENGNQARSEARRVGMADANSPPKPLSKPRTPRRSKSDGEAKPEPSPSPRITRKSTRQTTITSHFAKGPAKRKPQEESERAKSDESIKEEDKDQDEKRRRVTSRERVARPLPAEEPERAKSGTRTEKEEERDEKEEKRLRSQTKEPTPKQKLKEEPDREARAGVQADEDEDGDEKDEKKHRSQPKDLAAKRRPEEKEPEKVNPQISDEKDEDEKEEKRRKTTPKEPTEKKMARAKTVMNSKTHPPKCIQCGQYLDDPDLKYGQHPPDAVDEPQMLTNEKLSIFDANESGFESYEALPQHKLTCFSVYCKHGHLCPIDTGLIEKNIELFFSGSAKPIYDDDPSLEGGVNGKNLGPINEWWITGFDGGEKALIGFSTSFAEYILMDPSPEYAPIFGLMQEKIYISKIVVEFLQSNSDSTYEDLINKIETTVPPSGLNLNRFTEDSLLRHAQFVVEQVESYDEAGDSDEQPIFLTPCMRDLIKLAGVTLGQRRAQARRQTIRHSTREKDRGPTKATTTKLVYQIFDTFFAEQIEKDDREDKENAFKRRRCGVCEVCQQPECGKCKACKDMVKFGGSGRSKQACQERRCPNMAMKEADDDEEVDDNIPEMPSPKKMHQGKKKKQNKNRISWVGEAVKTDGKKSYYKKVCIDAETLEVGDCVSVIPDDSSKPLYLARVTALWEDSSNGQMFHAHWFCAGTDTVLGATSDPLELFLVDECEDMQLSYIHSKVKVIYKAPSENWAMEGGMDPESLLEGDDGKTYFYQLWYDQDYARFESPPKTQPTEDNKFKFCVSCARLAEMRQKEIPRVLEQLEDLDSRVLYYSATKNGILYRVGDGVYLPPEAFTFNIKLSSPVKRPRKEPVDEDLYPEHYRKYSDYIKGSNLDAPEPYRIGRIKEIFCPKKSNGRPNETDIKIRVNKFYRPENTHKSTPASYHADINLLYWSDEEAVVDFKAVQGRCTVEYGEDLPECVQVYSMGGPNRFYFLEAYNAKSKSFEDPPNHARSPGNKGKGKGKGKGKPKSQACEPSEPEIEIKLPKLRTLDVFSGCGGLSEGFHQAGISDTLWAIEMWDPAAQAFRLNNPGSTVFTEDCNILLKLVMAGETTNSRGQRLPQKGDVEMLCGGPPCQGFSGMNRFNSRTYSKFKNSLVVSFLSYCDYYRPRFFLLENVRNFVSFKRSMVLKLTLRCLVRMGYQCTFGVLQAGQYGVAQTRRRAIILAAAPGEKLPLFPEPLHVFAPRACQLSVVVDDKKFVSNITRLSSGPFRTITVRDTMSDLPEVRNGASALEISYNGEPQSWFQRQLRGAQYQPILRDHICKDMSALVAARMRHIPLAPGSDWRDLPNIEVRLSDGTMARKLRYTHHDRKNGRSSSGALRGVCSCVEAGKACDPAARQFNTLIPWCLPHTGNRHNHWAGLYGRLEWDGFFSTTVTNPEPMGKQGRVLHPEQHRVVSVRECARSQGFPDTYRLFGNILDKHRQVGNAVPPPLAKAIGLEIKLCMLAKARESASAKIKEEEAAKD

By AC50 is commonly meant the concentration at which the activity in the assay is half-maximal. In the case of `CC(C)(C)OC(=O)N[C@@H](Cc1c[nH]c2ccccc12)c1nnc(SCC(N)=O)o1`, in [1], the concentration at half-maximal activity (AC50) was 19.5 µM (active).
`N#Cc1ccc(NC(=S)NCCN2CCOCC2)cc1`: the AC50 in experiment [2] was 107 µM (active).
Consider `O=C(Cc1cccs1)N(Cc1ccco1)C1(C(=O)NC2CCCCC2)CCCCC1`, for which the figures for the EC50 in experiment [3], in [4] and in experiment [5] were 24.2 µM (active), 431 µM (active) and 159 µM (active), respectively.
Broadly, the IC50 is the point on the concentration scale where inhibition reaches its midpoint. On to `CCc1cc(OCCCCNCc2ccccc2)ccc1Cl`, for which the CC50 in [6] and in [7] was > 40 µM (active) each time. Besides, the concentration at half-maximal activity (AC50) in [1] is 10.6 µM (active). Further, the IC50 in the experiment “cells” was 20.1 µM (active).
On to `Cc1ccnc(NS(=O)(=O)c2ccc(NC(=O)Cc3cccs3)cc2)n1`, for which the IC50 was 12.2 µM (active) at Estrogen receptor; 9.16 µM (active) in [8]; 3.09 µM (active) on Estrogen receptor beta [9]; > 109 µM (not active) against Estrogen receptor beta [10]; 4.2 µM (active) in experiment [11].
In the case of `CC(C)c1ccccc1NC(=O)Cn1c(-c2ccccc2Cl)nc2ccccc21`, the EC50 in experiment [3] was 18.3 µM (active).
Consider `O=C(COC(=O)CNC(=O)c1ccc(Cl)cc1Cl)NCc1ccco1`, for which the IC50 (on Melanocortin receptor 4; in [12]) was > 64.6 µM (inactive) in each case.
Take `Cc1ccc2nc(-c3ccc(NC(=O)C(C)Sc4nncs4)cc3)sc2c1` (configuration not stated): the IC50 (at Melanocortin receptor 4; in [12]) was > 64.6 µM (inactive) in each case. Moreover, the AC50 was > 52 µM (inactive) in experiment [13], 5.56 µM (active) in experiment [14] and 5.51 µM (active) in [15].
Turning to `CCOc1ccccc1NC(=O)CCS(=O)(=O)c1cc2c(cc1Br)CCN2C(=O)CC`, the EC50 in experiment [16] was > 100 µM (inactive).
As to `N#CC(c1ccccc1)c1c(Cl)cnn(Cc2cccc3ccccc23)c1=O` (configuration not stated), the IC50 in experiment [17] is 0.13 µM (active); in experiment [18] it was 7.61 µM (active).
As for `COc1ccc(Oc2c(Cl)cnn(CC(=O)O)c2=O)cc1`, the IC50 in experiment [17] and in experiment [18] was > 20 µM (inactive) in each case.
